# Molecular target: T1, LCK KD GST (225-509) (Homo sapiens, UniProt P06239)
# T1 construct: LCK KD GST (225-509); GST
# Assay: LCK Homogenous Time Resolved Fluorescent (HTRF) kinase assay
# Format: biochemical
# Experimental: The LCK HTRF assay begins with LCK in the presence of ATP phosphorylating the biotinylated peptide Gastrin. The reaction incubates for 90 min. To quench the assay detection reagents are added which both stop the reaction by diluting out the enzyme and chelating the metals due to the presence of EDTA. Once the detection reagents are added the assay incubates for 30 min to allow for equilibration of the detection reagents.
# Buffer conditions are as follows: 50 mM HEPES pH 7.5, 50 mM NaCl, 20 mM MgCl, 5 mM MnCl, 2 mM DTT, 0.05% BSA.
# The assay is quenched and stopped with 160 μL of detection reagent. Detection reagents are as follows: Buffer made of 50 mM Tris, pH 7.5, 100 mM NaCl, 3 mM EDTA, 0.05% BSA, 0.1% Tween20.
# The assay plate is read in either a Discovery or a RubyStar.
# T1 sequence (P06239 225-509): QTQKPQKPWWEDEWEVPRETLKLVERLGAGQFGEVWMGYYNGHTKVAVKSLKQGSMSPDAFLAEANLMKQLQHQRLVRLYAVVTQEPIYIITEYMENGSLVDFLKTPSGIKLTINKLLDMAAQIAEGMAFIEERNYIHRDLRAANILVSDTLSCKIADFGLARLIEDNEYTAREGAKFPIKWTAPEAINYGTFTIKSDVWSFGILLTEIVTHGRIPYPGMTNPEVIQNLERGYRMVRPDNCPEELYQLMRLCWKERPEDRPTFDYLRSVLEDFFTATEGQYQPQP
row,SMILES,IC50 [nM]
1,"CNc1ncnc(-c2cccnc2Oc2cc(C(=O)Nc3cccc(OCc4ccccc4)c3)ccc2C)n1 [4-methyl-3-((3-(4-(methylamino)-1,3,5-triazin-2-yl)-2-pyridinyl)oxy)-N-(3-((phenylmethyl)oxy)phenyl)benzamide]",< 1000
2,"CNc1ncnc(-c2cccnc2Oc2cc(C(=O)Nc3cccc(C(F)(F)F)c3)ccc2C)n1 [4-methyl-3-((3-(4-(methylamino)-1,3,5-triazin-2-yl)-2-pyridinyl)oxy)-N-(3-(trifluoromethyl)phenyl)benzamide]",< 1000
3,Cc1ccc(C(=O)Nc2ccc(C(F)(F)F)cc2)cc1Nc1ncccc1-c1ccncn1 [4-methyl-3-((3-(4-pyrimidinyl)-2-pyridinyl)amino)-N-(4-(trifluoromethyl)phenyl)benzamide],< 1000
4,Cc1ccc(C(=O)Nc2cccc(C(F)(F)F)c2)cc1Oc1ncccc1-c1ccncn1 [4-methyl-3-((3-(4-pyrimidinyl)-2-pyridinyl)oxy)-N-(3-(trifluoromethyl)phenyl)benzamide],< 1000
5,CNc1cc(-c2cccnc2Oc2cc(C(=O)Nc3cccc(C(F)(F)F)c3)ccc2C)ncn1 [4-methyl-3-((3-(6-(methylamino)-4-pyrimidinyl)-2-pyridinyl)oxy)-N-(3-(trifluoromethyl)phenyl)benzamide],< 1000
6,COc1ccc(C(F)(F)F)cc1NC(=O)c1ccc(C)c(Oc2ncccc2-c2ccncn2)c1 [4-methyl-N-(2-(methyloxy)-5-(trifluoromethyl)phenyl)-3-((3-(4-pyrimidinyl)-2-pyridinyl)oxy)benzamide],< 1000
7,"Cc1ccc(C(=O)Nc2cccc(C(C)C)c2)cc1Oc1ncccc1-c1ncnc(NCCCN2CCOCC2)n1 [4-methyl-N-(3-(1-methylethyl)phenyl)-3-((3-(4-((3-(4-morpholinyl)propyl)amino)-1,3,5-triazin-2-yl)-2-pyridinyl)oxy)benzamide]",< 1000
8,"CNc1nccc(-c2cccnc2Oc2cccc(NC(=O)c3cc(C(C)(C)C)ccc3OC)c2)n1 [5-(1,1-dimethylethyl)-N-(3-((3-(2-(methylamino)-4-pyrimidinyl)-2-pyridinyl)oxy)phenyl)-2-(methyloxy)benzamide]",< 1000
9,"CNc1nccc(-c2cccnc2Oc2cc(NC(=O)c3cc(C(C)(C)C)ccc3OC)ccc2C)n1 [5-(1,1-dimethylethyl)-N-(4-methyl-3-((3-(2-(methylamino)-4-pyrimidinyl)-2-pyridinyl)oxy)phenyl)-2-(methyloxy)benzamide]",< 1000
10,"CNc1nccc(-c2cccnc2Oc2ccc(NC(=O)Nc3cc(Cl)ccc3Cl)cc2C)n1 [N-(2,5-dichlorophenyl)-N′-(3-methyl-4-((3-(2-(methylamino)-4-pyrimidinyl)-2-pyridinyl)oxy)phenyl)urea]",< 1000
11,"CNc1nccc(-c2cccnc2Oc2ccc(NC(=O)Nc3cc(C)ccc3C)cc2C)n1 [N-(2,5-dimethylphenyl)-N′-(3-methyl-4-((3-(2-(methylamino)-4-pyrimidinyl)-2-pyridinyl)oxy)phenyl)urea]",< 1000
12,"CNc1cc(-c2cccnc2Oc2ccc(F)c(C(=O)Nc3cc(C(C)(C)C)ccc3N(C)CCCN(C)C)c2)ccn1 [N-(2-((3-(dimethylamino)propyl)(methyl)amino)-5-(1,1-dimethylethyl)phenyl)-2-fluoro-5-((2′-(methylamino)-3,4′-bipyridin-2-yl)oxy)benzamide]",< 1000
13,"CNc1ncnc(-c2cccnc2Oc2ccc(F)c(C(=O)Nc3cc(C(C)C)ccc3N(C)CCCN(C)C)c2)n1 [N-(2-((3-(dimethylamino)propyl)(methyl)amino)-5-(1-methylethyl)phenyl)-2-fluoro-5-((3-(4-(methylamino)-1,3,5-triazin-2-yl)-2-pyridinyl)oxy)benzamide]",< 1000
14,"CNc1ncnc(-c2cccnc2Oc2ccc(F)c(C(=O)Nc3cc(C(F)(F)C(F)(F)F)ccc3N(C)CCCN(C)C)c2)n1 [N-(2-((3-(dimethylamino)propyl)(methyl)amino)-5-(pentafluoroethyl)phenyl)-2-fluoro-5-((3-(4-(methylamino)-1,3,5-triazin-2-yl)-2-pyridinyl)oxy)benzamide]",< 1000
15,"CNc1ncnc(-c2cccnc2Oc2ccc(F)c(C(=O)Nc3cc(C(F)(F)F)ccc3N(C)CCCN(C)C)c2)n1 [N-(2-((3-(dimethylamino)propyl)(methyl)amino)-5-(trifluoromethyl)phenyl)-2-fluoro-5-((3-(4-(methylamino)-1,3,5-triazin-2-yl)-2-pyridinyl)oxy)benzamide]",< 1000
16,"CNc1cc(-c2cccnc2Oc2cc(C(=O)Nc3cc(C(F)(F)F)ccc3N(C)CCCN(C)C)ccc2C)ccn1 [N-(2-((3-(dimethylamino)propyl)(methyl)amino)-5-(trifluoromethyl)phenyl)-4-methyl-3-((2′-(methylamino)-3,4′-bipyridin-2-yl)oxy)benzamide]",< 1000
17,CNc1nccc(-c2cccnc2Oc2cc(C(=O)Nc3cc(C(F)(F)F)ccc3N(C)CCCN(C)C)ccc2C)n1 [N-(2-((3-(dimethylamino)propyl)(methyl)amino)-5-(trifluoromethyl)phenyl)-4-methyl-3-((3-(2-(methylamino)-4-pyrimidinyl)-2-pyridinyl)oxy)benzamide],< 1000
18,"CNc1ncnc(-c2cccnc2Oc2cc(C(=O)Nc3cc(C(F)(F)F)ccc3N(C)CCCN(C)C)ccc2C)n1 [N-(2-((3-(dimethylamino)propyl)(methyl)amino)-5-(trifluoromethyl)phenyl)-4-methyl-3-((3-(4-(methylamino)-1,3,5-triazin-2-yl)-2-pyridinyl)oxy)benzamide]",< 1000
19,"CNc1ncnc(-c2cccnc2Oc2ccc(NC(=O)Nc3cc(C(F)(F)F)ccc3N(C)CCCN(C)C)c3ccccc23)n1 [N-(2-((3-(dimethylamino)propyl)(methyl)amino)-5-(trifluoromethyl)phenyl)-N′-(4-((3-(4-(methylamino)-1,3,5-triazin-2-yl)-2-pyridinyl)oxy)-1-naphthalenyl)urea]",< 1000

# Results, then the compound that gave them:
row,IC50 [nM],SMILES
1,< 1000,C#Cc1ccc(N(C)CCCN(C)C)c(NC(=O)c2cc(Oc3ncccc3-c3ccnc(NC)n3)ccc2F)c1 [N-(2-((3-(dimethylamino)propyl)(methyl)amino)-5-ethynylphenyl)-2-fluoro-5-((3-(2-(methylamino)-4-pyrimidinyl)-2-pyridinyl)oxy)benzamide]
2,< 1000,CNc1nccc(-c2cccnc2Oc2cc(C(=O)Nc3cc(C(F)(F)F)ccc3N3CC[C@H](N(C)C)C3)ccc2C)n1 [N-(2-((3S)-3-(dimethylamino)-1-pyrrolidinyl)-5-(trifluoromethyl)phenyl)-4-methyl-3-((3-(2-(methylamino)-4-pyrimidinyl)-2-pyridinyl)oxy)benzamide]
3,< 1000,"CNc1ncnc(-c2cccnc2Oc2ccc(NC(=O)Nc3cc(C(F)(F)F)ccc3N3CC[C@H](N(C)C)C3)c3ccccc23)n1 [N-(2-((3S)-3-(dimethylamino)-1-pyrrolidinyl)-5-(trifluoromethyl)phenyl)-N′-(4-((3-(4-(methylamino)-1,3,5-triazin-2-yl)-2-pyridinyl)oxy)-1-naphthalenyl)urea]"
4,< 1000,"CNc1ncnc(-c2cccnc2Oc2ccc(NC(=O)Nc3cc(C(F)(F)F)ccc3CN3CC[C@@H](N(C)C)C3)c3ccccc23)n1 [N-(2-(((3R)-3-(dimethylamino)-1-pyrrolidinyl)methyl)-5-(trifluoromethyl)phenyl)-N′-(4-((3-(4-(methylamino)-1,3,5-triazin-2-yl)-2-pyridinyl)oxy)-1-naphthalenyl)urea]"
5,< 1000,"CNc1cc(-c2cccnc2Oc2ccc(Cl)c(NC(=O)c3cccc(C(C)C)c3)c2)ccn1 [N-(2-chloro-5-((2′-(methylamino)-3,4′-bipyridin-2-yl)oxy)phenyl)-3-(1-methylethyl)benzamide]"
6,< 1000,"CNc1ncnc(-c2cccnc2Oc2cc(C(=O)Nc3cc(C(F)(F)F)ccc3Cl)ccc2C)n1 [N-(2-chloro-5-(trifluoromethyl)phenyl)-4-methyl-3-((3-(4-(methylamino)-1,3,5-triazin-2-yl)-2-pyridinyl)oxy)benzamide]"
7,< 1000,Cc1ccc(C(=O)Nc2cc(C(F)(F)F)ccc2Cl)cc1Oc1ncccc1-c1ccncn1 [N-(2-chloro-5-(trifluoromethyl)phenyl)-4-methyl-3-((3-(4-pyrimidinyl)-2-pyridinyl)oxy)benzamide]
8,< 1000,CNc1nccc(-c2cccnc2Oc2ccc(NC(=O)Nc3cc(C(F)(F)F)ccc3Cl)cc2C)n1 [N-(2-chloro-5-(trifluoromethyl)phenyl)-N′-(3-methyl-4-((3-(2-(methylamino)-4-pyrimidinyl)-2-pyridinyl)oxy)phenyl)urea]
9,< 1000,CNc1nccc(-c2cccnc2Oc2ccc(NC(=O)Nc3cc(C(F)(F)F)ccc3F)c3ccccc23)n1 [N-(2-fluoro-5-(trifluoromethyl)phenyl)-N′-(4-((3-(2-(methylamino)-4-pyrimidinyl)-2-pyridinyl)oxy)-1-naphthalenyl)urea]
10,< 1000,"CNc1nccc(-c2cccnc2Oc2cc(C(=O)Nc3cc(C(C)(C)C)nn3-c3ccccc3)ccc2C)n1 [N-(3-(1,1-dimethylethyl)-1-phenyl-1H-pyrazol-5-yl)-4-methyl-3-((3-(2-(methylamino)-4-pyrimidinyl)-2-pyridinyl)oxy)benzamide]"
11,< 1000,"Cc1ccc(C(=O)Nc2cc(C(C)(C)C)nn2-c2ccccc2)cc1Oc1ncccc1-c1ccncn1 [N-(3-(1,1-dimethylethyl)-1-phenyl-1H-pyrazol-5-yl)-4-methyl-3-((3-(4-pyrimidinyl)-2-pyridinyl)oxy)benzamide]"
12,< 1000,"CNc1ncnc(-c2cccnc2Oc2ccc(F)c(C(=O)Nc3cccc(C(C)(C)C)c3)c2)n1 [N-(3-(1,1-dimethylethyl)phenyl)-2-fluoro-5-((3-(4-(methylamino)-1,3,5-triazin-2-yl)-2-pyridinyl)oxy)benzamide]"

# Reference: patent US8476434B2, “Protein kinase modulators and method of use” (Amgen Inc., priority 2004, dated 2013)
